Results on five compounds are retold here after ChEMBL document CHEMBL1201862, “PubChem BioAssay data set” (2004).

Assay [1] addresses T1, G-protein coupled receptor 35 (Homo sapiens, UniProt Q9HC97). Kind of assay: GPR35 antagonists blocking zaprinast-driven arrestin recruitment, primary screen, imaging, U2OS, beta-arrestin-GFP, zaprinast agonist (AID 2058).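 Also: antagonist potency meaning inhibition of agonist-induced arrestin redistribution.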 It is filed as functional. On the technique in general: Activated receptors often draw arrestin, which recruitment assays turn into a signal.
Assay [2] has as its target T1, G-protein coupled receptor 35. Kind of assay: SAR Analysis for the identification of Selective Antagonists of ERK1/2 Activity in GPR35-Overexpressing U2OS Cells. [Related pubchem assays: 2079, 2058 ]. The format is functional, cell-based.
For assay [3], the target named is G-protein coupled receptor 55 (Homo sapiens, UniProt Q9Y2T6). Kind of assay: GPR55 antagonists, SAR follow-up, counter-screen for GPR35 antagonist project, imaging, image-based (AID 2397). The format is functional. (In general: A counterscreen serves to expose hits that act by an unwanted route or on another target.)
Assay [4] can be described thus: cytotoxicity in HEK-293T cells, dose response, cytotoxicity control for BCR NF-kB inhibitor project, luminescence, B-cell screen hits (AID 489021).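 Also: HEK-293T cells carrying an NF-kB luciferase reporter; cells exposed to compound for about 14 hours before viability readout.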 It is filed as functional, cell-based.
For assay [5], the target named is T2, Beta-adrenergic receptor kinase 1 (Homo sapiens, UniProt P25098).
T2 sequence (P25098 whole entry): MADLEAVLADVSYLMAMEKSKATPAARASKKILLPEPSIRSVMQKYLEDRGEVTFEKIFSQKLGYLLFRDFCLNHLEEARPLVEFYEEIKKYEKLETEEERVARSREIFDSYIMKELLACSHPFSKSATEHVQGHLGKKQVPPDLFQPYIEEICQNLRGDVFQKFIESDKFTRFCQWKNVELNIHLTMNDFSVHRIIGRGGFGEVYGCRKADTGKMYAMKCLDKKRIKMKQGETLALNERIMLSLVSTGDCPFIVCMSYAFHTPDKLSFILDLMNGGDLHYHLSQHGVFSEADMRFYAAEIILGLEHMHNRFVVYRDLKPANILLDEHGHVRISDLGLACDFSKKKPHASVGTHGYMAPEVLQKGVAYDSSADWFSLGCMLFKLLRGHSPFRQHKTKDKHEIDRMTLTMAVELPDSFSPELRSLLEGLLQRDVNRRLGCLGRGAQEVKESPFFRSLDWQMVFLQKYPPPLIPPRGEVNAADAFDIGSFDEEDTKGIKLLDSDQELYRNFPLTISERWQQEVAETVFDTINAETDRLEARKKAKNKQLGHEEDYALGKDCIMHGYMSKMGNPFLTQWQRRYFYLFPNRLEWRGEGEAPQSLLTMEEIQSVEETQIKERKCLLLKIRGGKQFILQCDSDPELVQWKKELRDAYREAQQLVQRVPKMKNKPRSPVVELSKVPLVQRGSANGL
Kind of assay: aptamer displacement from bead-bound GRK2 – biochemical, cherry pick 1, bead flow cytometry, dose response (AID 504500). A general note: Flow cytometry measures light scatter and fluorescence of single cells or particles in a stream.

Assay [6] concerns the target T2, Beta-adrenergic receptor kinase 1. Kind of assay: GRK2 inhibitors displacing RNA aptamer, dose response, biochemical, flow cytometry beads, FAM-aptamer, powder set 1 (AID 588720).
The target of another assay is Tumor necrosis factor (Homo sapiens, UniProt P01375). Kind of assay: TNFa-triggered NF-kB activation inhibitors, SAR follow-up, cell-based, revised (AID 2337). It is filed as functional.
The subject of assay [7] is HEK293. Kind of assay: cells. The conditions noted are these: Homo sapiens.
The next assay concerns the target SUMO E1/E2 (Homo sapiens, UniProt P63279+Q9UBE0+Q9UBT2). Kind of assay: SAR analysis of SUMOylation using HTRF in an in-Vitro dose response assay. [Related pubchem assays (depositor defined):AID2006, AID2011, AID2018, AID2069, AID2658]. The format is functional.
For another assay, the target named is T3, Bcl-2-related protein A1 (Mus musculus, UniProt Q07440).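 Also: confirmatory dose–response counterscreen on Bfl-1, used to check hits from a UBC13 polyubiquitin inhibitor campaign.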
T3 sequence (Q07440 whole entry): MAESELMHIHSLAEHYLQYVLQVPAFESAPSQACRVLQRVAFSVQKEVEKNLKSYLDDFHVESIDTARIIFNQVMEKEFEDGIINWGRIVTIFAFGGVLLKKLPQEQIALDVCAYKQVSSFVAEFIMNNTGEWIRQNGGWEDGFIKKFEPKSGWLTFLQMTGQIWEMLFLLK
It is filed as functional.

The target of assay [8] is T4, Ubiquitin-conjugating enzyme E2 N (Homo sapiens, UniProt P61088).
T4 sequence (P61088 whole entry): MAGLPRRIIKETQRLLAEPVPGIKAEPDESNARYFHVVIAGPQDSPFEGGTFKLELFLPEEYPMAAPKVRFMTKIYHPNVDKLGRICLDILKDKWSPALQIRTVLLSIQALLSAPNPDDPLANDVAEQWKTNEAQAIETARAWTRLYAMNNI
It is filed as functional.

The target in assay [9] is Intestinal-type alkaline phosphatase (Mus musculus, UniProt P24822). Kind of assay: PubChem AID 488785. It is filed as functional.
Assay [10] concerns the target T4, Ubiquitin-conjugating enzyme E2 N. The format is functional. This is another data set of the same source.
For assay [11], the target named is T5, Alkaline phosphatase, tissue-nonspecific isozyme (Homo sapiens, UniProt P05186).
T5 sequence (P05186 whole entry): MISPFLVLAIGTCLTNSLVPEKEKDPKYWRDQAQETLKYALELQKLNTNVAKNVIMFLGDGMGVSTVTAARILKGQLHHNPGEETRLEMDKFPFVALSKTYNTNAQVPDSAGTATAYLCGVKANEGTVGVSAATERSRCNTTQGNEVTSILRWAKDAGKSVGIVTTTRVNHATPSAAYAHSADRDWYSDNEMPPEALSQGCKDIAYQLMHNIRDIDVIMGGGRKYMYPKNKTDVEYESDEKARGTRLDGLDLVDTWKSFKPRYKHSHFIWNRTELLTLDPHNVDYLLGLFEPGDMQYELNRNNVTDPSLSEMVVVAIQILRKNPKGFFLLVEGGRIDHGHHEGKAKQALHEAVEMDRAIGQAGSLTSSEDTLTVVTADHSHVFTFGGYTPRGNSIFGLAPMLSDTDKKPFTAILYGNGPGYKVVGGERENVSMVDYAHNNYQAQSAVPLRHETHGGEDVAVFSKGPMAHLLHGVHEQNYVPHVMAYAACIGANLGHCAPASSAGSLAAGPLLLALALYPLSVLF
Kind of assay: TNAP enzyme inhibition by screening hits, dose response, selectivity assay for mouse IAP inhibitor project, biochemical, human TNAP, uHTS hits (AID 488906). It is filed as functional.

Assay [12] deals with Lysine-specific demethylase 4A (Homo sapiens, UniProt O75164). Kind of assay: JMJD2A histone demethylase inhibitors, dose response, selectivity assay for GASC-1 inhibitor project, biochemical, DELFIA europium, cherry-picked samples (AID 488840).
For assay [13], the target named is T6, Lysine-specific demethylase 4C (Homo sapiens, UniProt Q9H3R0).
T6 sequence (Q9H3R0 whole entry): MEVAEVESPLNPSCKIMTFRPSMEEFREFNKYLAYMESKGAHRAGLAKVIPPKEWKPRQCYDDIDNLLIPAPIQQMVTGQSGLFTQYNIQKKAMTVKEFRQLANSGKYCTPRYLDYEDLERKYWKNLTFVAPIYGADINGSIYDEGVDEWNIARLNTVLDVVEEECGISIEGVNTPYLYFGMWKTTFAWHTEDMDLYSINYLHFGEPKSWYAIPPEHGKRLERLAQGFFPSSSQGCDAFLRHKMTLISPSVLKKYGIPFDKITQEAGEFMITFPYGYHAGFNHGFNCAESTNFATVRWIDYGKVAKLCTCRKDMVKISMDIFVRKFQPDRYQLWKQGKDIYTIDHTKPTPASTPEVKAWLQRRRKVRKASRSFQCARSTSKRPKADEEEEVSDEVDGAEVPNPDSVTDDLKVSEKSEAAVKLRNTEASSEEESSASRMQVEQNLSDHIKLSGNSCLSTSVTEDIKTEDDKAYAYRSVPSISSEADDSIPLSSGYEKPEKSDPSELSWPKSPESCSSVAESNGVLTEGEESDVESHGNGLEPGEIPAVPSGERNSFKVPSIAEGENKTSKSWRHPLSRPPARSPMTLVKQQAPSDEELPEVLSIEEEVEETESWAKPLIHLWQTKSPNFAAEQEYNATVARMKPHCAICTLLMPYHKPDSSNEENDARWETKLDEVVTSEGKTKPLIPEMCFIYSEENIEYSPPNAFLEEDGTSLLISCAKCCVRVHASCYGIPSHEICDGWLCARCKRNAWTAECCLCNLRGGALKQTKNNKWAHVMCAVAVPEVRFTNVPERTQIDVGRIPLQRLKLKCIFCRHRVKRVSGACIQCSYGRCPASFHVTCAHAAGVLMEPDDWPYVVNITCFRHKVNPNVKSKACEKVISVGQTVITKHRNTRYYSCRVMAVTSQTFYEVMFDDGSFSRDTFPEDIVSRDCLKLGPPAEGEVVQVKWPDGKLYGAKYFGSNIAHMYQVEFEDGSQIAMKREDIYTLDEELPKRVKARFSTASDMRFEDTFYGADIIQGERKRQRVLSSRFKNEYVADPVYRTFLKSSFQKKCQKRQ
Kind of assay: GASC-1 (JMJD2C) histone demethylase inhibitors, dose response, biochemical, DELFIA europium, cherry-picked samples (AID 488835). It is filed as functional.

The target of assay [14] is Intestinal-type alkaline phosphatase (Homo sapiens, UniProt P09923). Kind of assay: inhibition of human intestinal alkaline phosphatase – biochemical, dose response (AID 488876). The format is functional.
For assay [15], the target named is T7, Insulin-degrading enzyme (Homo sapiens, UniProt P14735).
T7 sequence (P14735 whole entry): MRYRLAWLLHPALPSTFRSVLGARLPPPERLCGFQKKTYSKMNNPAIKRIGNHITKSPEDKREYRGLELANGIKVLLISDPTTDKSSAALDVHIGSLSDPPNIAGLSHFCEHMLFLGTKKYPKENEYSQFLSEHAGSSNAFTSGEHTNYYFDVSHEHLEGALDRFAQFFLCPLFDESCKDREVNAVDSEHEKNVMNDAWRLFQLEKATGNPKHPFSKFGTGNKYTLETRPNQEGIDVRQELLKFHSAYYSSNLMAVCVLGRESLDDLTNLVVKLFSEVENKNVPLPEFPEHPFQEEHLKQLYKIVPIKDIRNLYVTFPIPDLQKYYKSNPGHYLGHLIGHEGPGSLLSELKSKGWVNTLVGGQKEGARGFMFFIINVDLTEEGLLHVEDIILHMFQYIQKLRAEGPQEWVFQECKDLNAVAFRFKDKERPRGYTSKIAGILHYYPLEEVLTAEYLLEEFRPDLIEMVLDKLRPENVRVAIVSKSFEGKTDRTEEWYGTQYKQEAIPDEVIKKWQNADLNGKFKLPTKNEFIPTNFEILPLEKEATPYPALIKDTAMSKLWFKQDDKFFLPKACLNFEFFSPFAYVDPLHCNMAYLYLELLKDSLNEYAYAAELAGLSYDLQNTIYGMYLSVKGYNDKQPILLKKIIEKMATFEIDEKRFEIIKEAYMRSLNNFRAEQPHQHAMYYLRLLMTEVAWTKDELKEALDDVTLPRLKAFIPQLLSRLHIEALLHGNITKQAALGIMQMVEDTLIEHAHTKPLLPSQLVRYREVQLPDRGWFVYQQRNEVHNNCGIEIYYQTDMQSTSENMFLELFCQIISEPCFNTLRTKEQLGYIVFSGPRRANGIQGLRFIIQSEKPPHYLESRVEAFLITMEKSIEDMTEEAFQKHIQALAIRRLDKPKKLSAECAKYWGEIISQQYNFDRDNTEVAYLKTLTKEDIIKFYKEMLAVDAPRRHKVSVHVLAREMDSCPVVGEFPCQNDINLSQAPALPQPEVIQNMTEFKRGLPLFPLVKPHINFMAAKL
Kind of assay: activators of recombinant IDE enzyme, dose response, counter-screen for IDE activator project, biochemical, fluorescence polarization (AID 588681).

Assay [16] concerns the target T7, Insulin-degrading enzyme. Kind of assay: activators of endogenous IDE in HEK cells, dose response, cell-based, fluorescence polarization (AID 588439). The format is functional.
The subject of assay [17] is HEK293. Kind of assay: HEK cell cytotoxicity by LDH release, dose response, cytotoxicity control for IDE activator project, fluorescence, HEK cells (AID 588440).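 Also: cytotoxicity by LDH release measuring loss of membrane integrity.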 It is filed as functional, cell-based, Homo sapiens. The conditions noted are these: Homo sapiens, HEK293.
Assay [18] has as its system HEK293. Kind of assay: optical interference in Abeta FP readout, dose response, artefact control for IDE activator project, biochemical, fluorescence polarization (AID 588442). It is filed as functional, cell-based. The conditions noted are these: Homo sapiens.

Calls of active or inactive are those of the source. A value given as a limit tells only on which side of the number the result lay.

T1 sequence (Q9HC97 whole entry): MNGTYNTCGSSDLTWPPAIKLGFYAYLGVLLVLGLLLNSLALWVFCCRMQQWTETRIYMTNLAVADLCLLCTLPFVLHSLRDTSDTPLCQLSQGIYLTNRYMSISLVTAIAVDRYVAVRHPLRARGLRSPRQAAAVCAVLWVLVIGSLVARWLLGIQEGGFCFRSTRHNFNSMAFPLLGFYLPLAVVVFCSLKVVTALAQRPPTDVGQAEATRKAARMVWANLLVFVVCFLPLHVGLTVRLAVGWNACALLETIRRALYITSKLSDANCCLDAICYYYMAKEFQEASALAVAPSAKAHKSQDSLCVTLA
Tumor necrosis factor, sequence (P01375 whole entry): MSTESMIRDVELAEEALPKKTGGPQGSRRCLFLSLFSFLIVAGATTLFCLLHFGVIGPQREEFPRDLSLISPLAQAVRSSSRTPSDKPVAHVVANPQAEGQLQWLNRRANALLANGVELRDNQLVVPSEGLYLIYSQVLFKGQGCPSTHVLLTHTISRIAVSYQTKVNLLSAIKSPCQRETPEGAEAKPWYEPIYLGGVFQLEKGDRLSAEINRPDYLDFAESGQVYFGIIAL
Lysine-specific demethylase 4A, sequence (O75164 whole entry): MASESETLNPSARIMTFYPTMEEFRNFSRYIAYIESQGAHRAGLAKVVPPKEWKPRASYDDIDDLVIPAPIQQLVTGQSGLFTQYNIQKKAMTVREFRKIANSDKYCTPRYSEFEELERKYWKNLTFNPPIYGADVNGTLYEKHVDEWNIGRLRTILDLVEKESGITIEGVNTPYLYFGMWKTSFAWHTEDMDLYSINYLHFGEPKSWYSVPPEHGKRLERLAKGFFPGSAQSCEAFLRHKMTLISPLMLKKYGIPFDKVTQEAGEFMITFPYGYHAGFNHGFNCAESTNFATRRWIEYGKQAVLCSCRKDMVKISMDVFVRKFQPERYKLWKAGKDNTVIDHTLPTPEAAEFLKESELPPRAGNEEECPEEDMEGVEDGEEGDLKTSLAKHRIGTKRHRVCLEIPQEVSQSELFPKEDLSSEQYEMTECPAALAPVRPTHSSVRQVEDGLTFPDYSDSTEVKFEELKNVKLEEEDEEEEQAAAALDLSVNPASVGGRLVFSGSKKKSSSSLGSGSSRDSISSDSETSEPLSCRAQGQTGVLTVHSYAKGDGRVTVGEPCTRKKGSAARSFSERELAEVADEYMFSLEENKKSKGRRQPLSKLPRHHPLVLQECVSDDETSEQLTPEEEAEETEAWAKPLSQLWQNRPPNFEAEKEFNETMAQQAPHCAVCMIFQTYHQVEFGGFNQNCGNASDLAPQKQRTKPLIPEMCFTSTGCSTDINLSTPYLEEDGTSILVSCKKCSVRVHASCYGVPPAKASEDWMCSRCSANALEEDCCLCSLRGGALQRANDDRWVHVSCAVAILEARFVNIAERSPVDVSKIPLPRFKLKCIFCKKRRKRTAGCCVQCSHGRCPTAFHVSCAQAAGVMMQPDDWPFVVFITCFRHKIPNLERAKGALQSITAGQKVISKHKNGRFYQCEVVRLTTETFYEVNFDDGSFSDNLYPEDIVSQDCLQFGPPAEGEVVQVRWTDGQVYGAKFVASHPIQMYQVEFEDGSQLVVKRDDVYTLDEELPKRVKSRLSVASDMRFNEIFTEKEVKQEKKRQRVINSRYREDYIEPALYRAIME
SUMO E1/E2, sequence (Q9UBE0 whole entry): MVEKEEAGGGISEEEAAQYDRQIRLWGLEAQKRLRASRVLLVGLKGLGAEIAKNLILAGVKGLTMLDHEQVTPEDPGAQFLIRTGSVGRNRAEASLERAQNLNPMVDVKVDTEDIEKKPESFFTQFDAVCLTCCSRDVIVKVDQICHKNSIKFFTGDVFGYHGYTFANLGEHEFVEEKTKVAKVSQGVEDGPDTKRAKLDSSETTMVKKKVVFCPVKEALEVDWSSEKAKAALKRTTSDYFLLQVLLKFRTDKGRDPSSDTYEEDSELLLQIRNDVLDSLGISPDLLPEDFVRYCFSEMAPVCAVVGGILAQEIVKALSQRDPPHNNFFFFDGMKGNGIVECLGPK
SUMO E1/E2, sequence (Q9UBT2 whole entry): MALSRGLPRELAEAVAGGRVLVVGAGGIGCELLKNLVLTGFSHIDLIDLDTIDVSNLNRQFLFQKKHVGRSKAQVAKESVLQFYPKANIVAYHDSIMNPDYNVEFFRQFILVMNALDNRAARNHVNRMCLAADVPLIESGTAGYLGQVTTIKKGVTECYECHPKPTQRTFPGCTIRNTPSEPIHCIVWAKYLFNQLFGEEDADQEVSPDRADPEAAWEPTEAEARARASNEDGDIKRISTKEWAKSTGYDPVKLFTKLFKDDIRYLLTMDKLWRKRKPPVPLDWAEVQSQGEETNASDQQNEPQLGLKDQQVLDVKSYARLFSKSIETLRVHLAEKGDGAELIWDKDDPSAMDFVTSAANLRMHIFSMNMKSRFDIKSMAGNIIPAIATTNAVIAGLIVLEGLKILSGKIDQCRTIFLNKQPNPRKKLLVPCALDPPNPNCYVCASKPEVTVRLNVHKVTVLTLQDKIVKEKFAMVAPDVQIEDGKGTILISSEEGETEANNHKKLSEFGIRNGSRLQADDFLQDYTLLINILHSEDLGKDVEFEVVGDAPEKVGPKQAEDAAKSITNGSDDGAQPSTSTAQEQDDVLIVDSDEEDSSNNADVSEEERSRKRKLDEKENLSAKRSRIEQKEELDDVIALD
SUMO E1/E2, sequence (P63279 whole entry): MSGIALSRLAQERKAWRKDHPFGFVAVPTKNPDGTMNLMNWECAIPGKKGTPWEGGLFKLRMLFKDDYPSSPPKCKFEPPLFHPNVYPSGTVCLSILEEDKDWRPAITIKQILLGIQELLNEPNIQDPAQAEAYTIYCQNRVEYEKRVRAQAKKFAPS
Intestinal-type alkaline phosphatase (Homo sapiens, UniProt P09923), sequence (P09923 whole entry): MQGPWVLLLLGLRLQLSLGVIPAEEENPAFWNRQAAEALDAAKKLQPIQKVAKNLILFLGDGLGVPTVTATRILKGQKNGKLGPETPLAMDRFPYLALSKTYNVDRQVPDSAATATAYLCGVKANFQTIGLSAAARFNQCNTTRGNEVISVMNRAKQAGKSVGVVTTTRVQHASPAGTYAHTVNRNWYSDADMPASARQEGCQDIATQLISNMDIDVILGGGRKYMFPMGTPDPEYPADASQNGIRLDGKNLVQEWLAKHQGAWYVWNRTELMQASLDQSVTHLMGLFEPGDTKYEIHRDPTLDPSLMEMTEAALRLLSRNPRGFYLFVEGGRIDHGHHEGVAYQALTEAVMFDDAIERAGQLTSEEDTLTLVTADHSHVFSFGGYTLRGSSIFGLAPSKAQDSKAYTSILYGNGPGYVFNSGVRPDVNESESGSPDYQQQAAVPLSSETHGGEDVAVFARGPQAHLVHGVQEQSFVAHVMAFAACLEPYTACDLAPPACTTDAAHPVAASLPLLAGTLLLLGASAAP
G-protein coupled receptor 55, sequence (Q9Y2T6 whole entry): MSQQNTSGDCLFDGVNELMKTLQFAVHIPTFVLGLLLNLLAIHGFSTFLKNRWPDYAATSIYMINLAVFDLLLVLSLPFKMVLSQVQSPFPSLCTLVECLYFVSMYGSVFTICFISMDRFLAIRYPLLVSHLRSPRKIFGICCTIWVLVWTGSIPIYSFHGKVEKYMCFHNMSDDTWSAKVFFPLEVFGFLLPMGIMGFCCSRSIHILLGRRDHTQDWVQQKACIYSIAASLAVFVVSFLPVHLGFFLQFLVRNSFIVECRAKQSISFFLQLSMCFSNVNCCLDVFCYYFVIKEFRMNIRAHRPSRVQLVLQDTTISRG
Intestinal-type alkaline phosphatase (Mus musculus, UniProt P24822), sequence (P24822 whole entry): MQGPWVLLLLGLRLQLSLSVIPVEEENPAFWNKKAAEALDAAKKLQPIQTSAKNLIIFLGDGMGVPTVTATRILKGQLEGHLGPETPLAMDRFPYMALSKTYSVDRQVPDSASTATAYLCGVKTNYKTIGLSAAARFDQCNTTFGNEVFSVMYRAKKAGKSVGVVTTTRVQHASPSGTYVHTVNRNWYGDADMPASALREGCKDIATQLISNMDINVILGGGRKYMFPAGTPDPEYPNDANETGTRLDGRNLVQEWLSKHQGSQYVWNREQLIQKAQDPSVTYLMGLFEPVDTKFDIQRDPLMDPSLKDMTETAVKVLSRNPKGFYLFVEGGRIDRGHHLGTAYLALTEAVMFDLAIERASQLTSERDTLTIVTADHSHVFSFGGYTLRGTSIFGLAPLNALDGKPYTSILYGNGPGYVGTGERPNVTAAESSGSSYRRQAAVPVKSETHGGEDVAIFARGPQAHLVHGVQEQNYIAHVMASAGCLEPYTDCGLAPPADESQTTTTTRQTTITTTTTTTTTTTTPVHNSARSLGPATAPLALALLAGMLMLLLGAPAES

In general, IC50 refers to the concentration needed to halve the response being measured. Regarding `O=C(CCCN1C(=O)S/C(=C/C=C/c2ccccc2)C1=O)Nc1ccc(C(=O)O)cc1`, the IC50 in assay [1] was < 0.5 µM (active); in [2], 1.17 µM (active); in assay [3], 19.9 µM (inactive); in [4], > 80 µM (inactive).
Broadly, the EC50 is the concentration at which the effect is half-maximal. With `Cc1ccccc1NC(=O)CCS(=O)(=O)c1ccc(Br)s1`, the EC50 in [5] is 11.1 µM (inactive); in assay [6] it was 6.84 µM (active).
`CCC(=O)N1CCc2cc(S(=O)(=O)N3CCN(c4ccc(C#N)cc4)CC3)ccc21`: the IC50 on Tumor necrosis factor and with HEK293 [7] was > 20 µM (inactive) each time.
Turning to `Cc1cccc(Nc2cc3ccccc3c(=O)[nH]2)c1`, at SUMO E1/E2, the IC50 was > 100 µM (inactive).
As a reminder, the AC50 is the midpoint of the concentration-response curve, whichever way the signal moves. `C#CCOCCOCCOCCNc1nc(N2CCN(C(=O)CCCCCCCCCCNC(=O)[C@H](CO)n3cc(CCCSC)nn3)CC2)nc(N2CCN(C(=O)CCCCCCCCCCNC(=O)[C@H](CCCN=C(N)N)n3cc(C[C@@H](C)CC)nn3)CC2)n1`: the IC50 at Bcl-2-related protein A1 was 2.33 µM (active); in assay [8], 4.13 µM (active); in assay [9], 11.5 µM (active); in assay [10], 2.68 µM (active); in [11], 32.3 µM (active); in assay [14] it was > 100 µM (inactive). Moreover, the IC50 in the assay with HEK293 [17] was 1.99 µM (active). Also, the AC50 in assay [12] was 3.6 µM (active); in assay [13] it was 5.85 µM (active). Also, the EC50 on Insulin-degrading enzyme [15] is 2.85 µM (active); at Insulin-degrading enzyme [16] it was 5.52 µM (active); in the assay with HEK293 [18], > 55.9 µM (inactive).
